Bridge positions count the residues as written; N and C are the ends. Square brackets hold non-standard residues; d marks the D form. Peptide text beside a SMILES is read from it. R8 = C=CCCCCCC[C@@](C)(N)C(=O)O; S5 = C=CCCC[C@](C)(N)C(=O)O; Nle = CCCC[C@H](N)C(=O)O
How the values were obtained:
HRE-bla ME-180 cells [1] = assay: Cell proliferation assay (viability, MTT, 1% FBS); type: cell-based, human
Outline: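 ME-180 cells (2×10^4/well) in Opti-MEM with 1% FBS were pretreated 16 h under normoxia (21% O2), vehicle 0.5% DMSO final. Incubation then continued under normoxia or hypoxia (1% O2); viable cells quantified by MTT-type CellTiter 96 assay.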

[2] = biological target: T1, flag-tagged HIF1α (AA 786-826) / His6-tagged p300 (AA 323-423) complex (Homo sapiens, UniProt Q09472); assay: HIF1α p300 displacement assay (TR FRET, +CHAPS); type: binding; details: read-out: IC50 (nM) (HIF1α_p300 Displacement + CHAPS)
T1 construct: His6-tagged p300 (AA 323-423); made in house; host or cells: E. coli (pETDuet vector)
Outline: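 The co-expressed flag-HIF1α (786-826)/His6-p300 (323-423) complex, purified from E. coli with 0.1 mM ZnSO4, was used at 300 nM final with competitor peptides for 1 h at room temperature. Buffer was 150 mM NaCl, 20 mM HEPES pH 7.4, 7.5 mM CHAPS and 1 mM DTT. Anti-Flag-K (0.5 μM) and anti-His-D2 (4 nM) were then added for 2 h, and IC50s were fitted from the TR-FRET ratio.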

HRE-bla ME-180 cells [3] = assay: Reporter gene assay (HRE-bla ME-180 HIF reporter, GeneBLAzer); type: cell-based, human; details: for EC50: 24 hour normoxia
Outline: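 A FRET β-lactamase readout of HIF transcription was used. After compound treatment in 0.3% DMSO/media under normoxic conditions, 20 μl of 6× LiveBLAzer-FRET B/G (CCF4-AM) substrate was added. Plates sat 3 hr at room temperature in the dark and were read at 409 Ex/460Em and 409Ex/530Em on a Synergy 2. Inhibition was compared against DMSO vehicle controls, with chetomin as positive control.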

| Structure (SMILES) | Viability 1% FBS AVG (MTT V3-24 hr Normoxia) (μM) (HRE-bla ME-180 cells [1]) | IC50 [2] | 18 h Avg % max inhibition at top conc (HIF Rptr-24 hrs normoxia) (μM) (HRE-bla ME-180 cells [3]) | EC50 (HRE-bla ME-180 cells [3]) |
| --- | --- | --- | --- | --- |
| CCCC[C@H](NC(=O)[C@]1(C)CCCC=CCCC[C@](C)(NC(=O)[C@H](CCCC)NC(=O)[C@H](CC(C)C)NC(=O)[C@@H](NC(=O)[C@H](CCC(=O)O)NC(=O)[C@H](CCC(=O)O)NC(=O)[C@H](CC(=O)O)NC(=O)[C@@H](NC(=O)[C@H](CC(N)=O)NC(=O)[C@@H](NC(=O)[C@]2(C)CCCC=CCCCCCC[C@@](C)(NC(=O)[C@H](CCC(=O)O)NC(C)=O)C(=O)N[C@@H](CC(C)C)C(=O)N[C@@H](CC(C)C)C(=O)N[C@@H](CCCNC(=N)N)C(=O)N[C@@H](C)C(=O)N[C@@H](CC(C)C)C(=O)N[C@@H](CC(=O)O)C(=O)N2)C(C)C)[C@@H](C)CC)C(C)C)C(=O)N[C@@H](CC(C)C)C(=O)N[C@@H](C(C)C)C(=O)N[C@@H]([C@@H](C)CC)C(=O)N1)C(N)=O [SP-351] (Ac-E[R8]LLRALD[S5]VNIDEEVL[Nle][S5]LVI[S5][Nle]-NH2; staple 2-9, 19-23) | ++++ (≥30: ++++) | 200 to 400 nM | ++ (≤10 but <25: ++) | > 30 µM |
| CCCC[C@H](NC(=O)[C@H](CCC(=O)O)NC(=O)[C@]1(C)CCCC=CCCCCCC[C@@](C)(NC(=O)[C@H](CCC(=O)O)NC(=O)[C@H](CC(=O)O)NC(=O)[C@@H](NC(=O)[C@H](CC(N)=O)NC(=O)[C@@H](NC(=O)[C@]2(C)CCCC=CCCCCCC[C@@](C)(NC(=O)[C@H](CCC(=O)O)NC(C)=O)C(=O)N[C@@H](CC(C)C)C(=O)N[C@@H](CC(C)C)C(=O)N[C@@H](CCCNC(=N)N)C(=O)N[C@@H](C)C(=O)N[C@@H](CC(C)C)C(=O)N[C@@H](CC(=O)O)C(=O)N2)C(C)C)[C@@H](C)CC)C(=O)N[C@@H](C(C)C)C(=O)N[C@@H](CC(C)C)C(=O)N[C@@H](CCCC)C(=O)N[C@@H](CO)C(=O)N[C@@H](CC(C)C)C(=O)N[C@@H](C(C)C)C(=O)N1)C(N)=O [SP-358] (Ac-E[R8]LLRALD[S5]VNIDE[R8]VL[Nle]SLV[S5]E[Nle]-NH2; staple 2-9, 15-22) | ++++ (≥30: ++++) | 200 to 400 nM | + (<10: +) | > 30 µM |
| CC[C@H](C)[C@H](NC(=O)[C@H](CCCNC(=N)N)NC(=O)[C@H](CC(=O)O)NC(=O)[C@H](CC(C)C)NC(=O)[C@H](C)NC(=O)[C@H](CCSC)NC(=O)[C@]1(C)CCCC=CCCC[C@](C)(NC(=O)[C@H](CCSC)NC(=O)[C@H](CC(C)C)NC(=O)[C@@H](NC(=O)[C@H](CCCCN)NC(=O)[C@H](CCC(=O)O)NC(=O)[C@H](CC(N)=O)NC(=O)[C@@H](NC(=O)[C@H](Cc2ccccc2)NC(C)=O)[C@@H](C)CC)C(C)C)C(=O)N[C@@H](CC(C)C)C(=O)N[C@@H](C(C)C)C(=O)N[C@@H]([C@@H](C)CC)C(=O)N1)C(N)=O [SP-285] (Ac-FINEKVLM[S5]LVI[S5]MALDRI-NH2; staple 9-13) | ++++ (≥30: ++++) | > 700 nM | +++ (≤25 but <50: +++) | > 30 µM |
| CCCC[C@H](NC(=O)[C@H](CCC(=O)O)NC(=O)[C@]1(C)CCCC=CCCCCCC[C@@](C)(NC(=O)[C@H](CCC(=O)O)NC(=O)[C@H](C)NC(=O)[C@@H](NC(=O)[C@H](CC(N)=O)NC(=O)[C@@H](NC(=O)[C@]2(C)CCCC=CCCCCCC[C@@](C)(NC(=O)[C@H](CCC(=O)O)NC(=O)CNC(=O)[C@H](CCC(N)=O)NC(=O)[C@H](CC(C)C)NC(=O)[C@H](CC(C)C)NC(C)=O)C(=O)N[C@@H](CC(C)C)C(=O)N[C@@H](CC(C)C)C(=O)N[C@@H](CCCNC(=N)N)C(=O)N[C@@H](C)C(=O)N[C@@H](CC(C)C)C(=O)N[C@@H](CC(=O)O)C(=O)N2)C(C)C)[C@@H](C)CC)C(=O)N[C@@H](C(C)C)C(=O)N[C@@H](CC(C)C)C(=O)N[C@@H](CCCC)C(=O)N[C@@H](CO)C(=O)N[C@@H](CC(C)C)C(=O)N[C@@H](C(C)C)C(=O)N1)C(N)=O [SP-355] (Ac-LLQGE[R8]LLRALD[S5]VNIAE[R8]VL[Nle]SLV[S5]E[Nle]-NH2; staple 6-13, 19-26) | ++++ (≥30: ++++) | ≤ 200 nM | ++ (≤10 but <25: ++) | > 30 µM |
| CCCC[C@@H]1NC(=O)[C@H](CC(C)C)NC(=O)[C@H]([C@@H](C)O)NC(=O)[C@@](C)(NC(=O)[C@H](CCC(=O)O)NC(=O)[C@H](CC(=O)O)NC(=O)[C@@H](NC(=O)[C@H](Cc2ccccc2)NC(C)=O)[C@@H](C)CC)CCCC=CCCCC2(CCCC=CCCC[C@](C)(C(=O)N[C@@H](CCCC)C(=O)N[C@@H](C)C(=O)N[C@@H](CC(C)C)C(N)=O)NC(=O)[C@H]([C@@H](C)CC)NC(=O)[C@H](C(C)C)NC(=O)[C@H](CC(C)C)NC2=O)NC1=O (stereo partly drawn) [SP-207] | ++++ (≥30: ++++) | ≤ 200 nM | + (<10: +) | > 30 µM |
| CCCC[C@H](NC(=O)[C@]1(C)CCCC=CCCC[C@](C)(NC(=O)[C@H](CCCC)NC(=O)[C@H](CC(C)C)NC(=O)[C@@H](NC(=O)[C@H](CCC(=O)O)NC(=O)[C@H](C)NC(=O)[C@H](CC(=O)O)NC(=O)[C@@H](NC(=O)[C@H](CC(N)=O)NC(=O)[C@@H](NC(=O)[C@]2(C)CCCC=CCCCCCC[C@@](C)(NC(=O)[C@H](CCC(=O)O)NC(=O)CNC(=O)[C@H](CCC(N)=O)NC(=O)[C@H](CC(C)C)NC(=O)[C@H](CC(C)C)NC(C)=O)C(=O)N[C@@H](CC(C)C)C(=O)N[C@@H](CC(C)C)C(=O)N[C@@H](CCCNC(=N)N)C(=O)N[C@@H](C)C(=O)N[C@@H](CC(C)C)C(=O)N[C@@H](CC(=O)O)C(=O)N2)C(C)C)[C@@H](C)CC)C(C)C)C(=O)N[C@@H](CC(C)C)C(=O)N[C@@H](C(C)C)C(=O)N[C@@H]([C@@H](C)CC)C(=O)N1)C(N)=O [SP-346] (Ac-LLQGE[R8]LLRALD[S5]VNIDAEVL[Nle][S5]LVI[S5][Nle]-NH2; staple 6-13, 23-27) | ++++ (≥30: ++++) | ≤ 200 nM | ++ (≤10 but <25: ++) | > 30 µM |
| CCCC[C@H](NC(=O)[C@H](Cc1ccccc1)NC(=O)[C@@H](NC(=O)[C@H](CCC(=O)O)NC(=O)[C@H](CCC(=O)O)NC(=O)[C@H](CC(=O)O)NC(=O)[C@@H](NC(=O)[C@H](Cc1ccccc1)NC(C)=O)[C@@H](C)CC)C(C)C)C(=O)N[C@@]1(C)CCCC=CCCC[C@@](C)(C(=O)N[C@@H](C)C(=O)N[C@@H](C)C(=O)N[C@@H](CC(C)C)C(=O)N[C@@H](CC(C)C)C(N)=O)NC(=O)[C@H]([C@@H](C)CC)NC(=O)[C@H](C(C)C)NC(=O)[C@H](CC(C)C)NC1=O [SP-247] (Ac-FIDEEVF[Nle][S5]LVI[S5]AALL-NH2; staple 9-13) | ++++ (≥30: ++++) | 400 to 700 nM | +++ (≤25 but <50: +++) | 15 to 30 µM |
| CCCC[C@H](NC(=O)[C@H](CC(C)C)NC(=O)[C@@H](NC(=O)[C@H](CCC(=O)O)NC(=O)[C@H](CCC(=O)O)NC(=O)[C@H](CC(=O)O)NC(=O)[C@@H](NC(=O)[C@H](CC(N)=O)NC(=O)[C@@H](NC(=O)[C@]1(C)CCCC=CCCC[C@](C)(NC(=O)[C@H](CC(C)C)NC(=O)[C@H](CC(C)C)NC(=O)[C@H](CCC(=O)O)NC(=O)[C@H](CCC(=O)O)NC(=O)CNC(=O)[C@H](CCC(N)=O)NC(=O)[C@H](CC(C)C)NC(=O)[C@H](CC(C)C)NC(C)=O)C(=O)N[C@@H](C)C(=O)N[C@@H](CC(C)C)C(=O)N[C@@H](CC(=O)O)C(=O)N1)C(C)C)[C@@H](C)CC)C(C)C)C(=O)N[C@@]1(C)CCCC=CCCC[C@@](C)(C(=O)N[C@@H](CCCC)C(=O)NCC(N)=O)NC(=O)[C@H]([C@@H](C)CC)NC(=O)[C@H](C(C)C)NC(=O)[C@H](CC(C)C)NC1=O [SP-340] (Ac-LLQGEELL[S5]ALD[S5]VNIDEEVL[Nle][S5]LVI[S5][Nle]G-NH2; staple 9-13, 23-27) | ++++ (≥30: ++++) | > 700 nM | ++ (≤10 but <25: ++) | > 30 µM |
| CCCC[C@H](NC(=O)[C@H](CCC(=O)O)NC(=O)[C@]1(C)CCCC=CCCCCCC[C@@](C)(NC(=O)[C@H](CCC(=O)O)NC(=O)[C@H](CC(=O)O)NC(=O)[C@@H](NC(=O)[C@H](CC(N)=O)NC(=O)[C@@H](NC(=O)[C@H](CCC(N)=O)NC(=O)[C@]2(C)CCCC=CCCC[C@](C)(NC(=O)[C@H](CC(C)C)NC(=O)[C@H](CCC(=O)O)NC(=O)[C@H](CCC(=O)O)NC(=O)CNC(=O)[C@H](CCC(N)=O)NC(=O)[C@H](CC(C)C)NC(=O)[C@H](CC(C)C)NC(C)=O)C(=O)N[C@@H](CCCNC(=N)N)C(=O)N[C@@H](C)C(=O)N[C@@H](CC(C)C)C(=O)N2)C(C)C)[C@@H](C)CC)C(=O)N[C@@H](C(C)C)C(=O)N[C@@H](CC(C)C)C(=O)N[C@@H](CCCC)C(=O)N[C@@H](CO)C(=O)N[C@@H](CC(C)C)C(=O)N[C@@H](C(C)C)C(=O)N1)C(=O)NCC(N)=O [SP-312] (Ac-LLQGEEL[S5]RAL[S5]QVNIDE[R8]VL[Nle]SLV[S5]E[Nle]G-NH2; staple 8-12, 19-26) | ++++ (≥30: ++++) | > 700 nM | ++++ (≥50: ++++) | ≤ 5 µM |

Reference: patent publication US20190225650A1, “PEPTIDOMIMETIC MACROCYCLES AND USE THEREOF IN REGULATING HIF1ALPHA” (AILERON THERAPEUTICS, INC., priority 2013, published 2019)
